BindingDB's records for doi:10.1021/acschembio.5b00452 (Oregon Health & Science University, 2015)

Columns and labels:
[1] = target: T1, N-glycosylase/DNA lyase (Homo sapiens, UniProt O15527); test: Fluorescence-based Assay; settings: pH 7.5; 37 °C
Procedure: The fluorescence-based assay outlined in Figure 2 a was performed in black, low volume 384-well plates with a fi nal volume of 10 µL per well. Nine uL of assay buffer (20 mM Tris-HCl, 100 mM KCl, 0.1% BSA, 0.01% Tween-20, pH 7.5) was added toeach well, followed by the addition of 1 uL of DMSO (control) or 50 µM compound in DMSO. […] Control wells containing just substrate or just substrate + enzyme were used to calculate Z values for each plate.

[2] = target: T1, N-glycosylase/DNA lyase; test: Gel-based Cleavage Assay
Procedure: Substrate (5 µL, 50 nM) was added to bring the final volume to 10 µL. The reaction was incubated 30 min at 37 °C, quenched by the addition of 10 µL of formamide, and put on ice. […] Band intensities were quantified using the Image Studio Lite Software (LI-COR).

T1 sequence (O15527 whole entry): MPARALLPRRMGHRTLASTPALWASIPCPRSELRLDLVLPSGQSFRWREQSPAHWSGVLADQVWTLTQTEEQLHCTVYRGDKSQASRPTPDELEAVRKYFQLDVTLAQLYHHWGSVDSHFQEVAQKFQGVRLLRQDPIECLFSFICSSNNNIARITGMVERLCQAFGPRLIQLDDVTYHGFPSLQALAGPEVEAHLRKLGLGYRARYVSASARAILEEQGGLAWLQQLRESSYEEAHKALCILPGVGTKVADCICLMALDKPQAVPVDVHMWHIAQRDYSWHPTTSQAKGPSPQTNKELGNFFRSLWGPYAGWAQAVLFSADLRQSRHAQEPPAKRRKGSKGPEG

| IC50 [1] [nM] | IC50 [2] [nM] | Structure (SMILES) |
| --- | --- | --- |
| 4150 | – | COc1cc(C)c(S(=O)(=O)n2cc(C)nc2-c2ccccc2)cc1C [1‐(4‐Methoxy‐2,5‐dimethylbenzenesulfonyl)‐4‐methyl‐2‐phenylimidazole (0105)] |
| 4560 | – | CCCN1CCC(=NNC(=O)c2ccc(Cl)cc2Cl)CC1 [2,4‐Dichloro‐N'‐(1‐propylpiperidin‐4‐ ylidene)benzohydrazide (0181)] |
| 3380 | – | CC(Oc1cccc(Cl)c1)C(=O)NN (stereo not given) [2‐(3‐Chlorophenoxy)propanehydrazide (01)] |
| 1530 | – | Cc1cc(OCC(=O)NN)cc(C)c1Cl [2‐(4‐Chloro‐3,5‐dimethylphenoxy)acetohydrazide (0159)] |
| 1560 | – | NNC(=O)COc1cccc2ccccc12 [2‐(Naphthalen‐1‐yloxy)acetohydrazide (040)] |
| 350 | 220 | NNC(=O)c1sc2cccc(Cl)c2c1Cl [3,4‐Dichloro‐1‐benzothiophene‐2‐carbohydrazide (08)] |
| 2130 | – | CCCC/C(C)=N\NC(=O)c1cccc(Br)c1 [3‐Bromo‐N'‐[(2Z)‐hexan‐2‐ylidene]benzohydrazide (0156)] |
| 3780 | – | C=CCC/C(C)=N\NC(=O)c1cccc(Br)c1 [3‐Bromo‐N'‐[(2Z)‐hex‐5‐en‐2‐ylidene]benzohydrazide (0155)] |
| 300 | – | NNC(=O)c1sc2ccccc2c1Cl [3‐Chloro‐1‐benzothiophene‐2‐carbohydrazide (O8-Cl)] |
| > 50000 | – | NC(=O)c1ccc(Br)cc1 [4-Bromo-benzamide] |
| > 50000 | > 50000 | NNC(=O)c1ccncc1 [4-pyridinecarbohydrazide(Isoniazid)] |
| 390 | – | NNC(=O)c1ccc(Br)cc1 [Benzoylhydrazine, P‐bromo (0151-Hy)] |
| > 50000 | – | Cc1cc(C(=O)NNCc2ccccc2)no1 [ISOCARBOXAZID] |
| 290 | 340 | O=C(NN=C1CCCCC1)c1cc2ccccc2cc1O [N'‐Cyclohexylidene‐3‐hydroxynaphthalene‐2‐carbohydrazide (0158)] |
| 7170 | – | C/C(=N\NC(=O)c1cc2ccccc2cc1O)c1ccc2c(c1)OCO2 [N'‐[(1E)‐1‐(2H‐1,3‐benzodioxol‐5‐yl)ethylidene]‐3‐hydroxynaphthalene‐2‐carbohydrazide (0179)] |
| > 50000 | – | NNc1nncc2ccccc12 [NSC_3637] |
| > 50000 | – | O=C(CCNNC(=O)c1ccncc1)NCc1ccccc1 [Nialamide] |
